Test results as given in patent US7998982B2, “Amide derivatives as TRPV1 antagonists” (Abbott Laboratories, priority 2007, dated 2011).

Biological target: T1, human TRPV1 receptor (Homo sapiens, UniProt Q8NER1)
T1 construct: expressed in transfected cells
Experiment: Ca2+ influx assay (FLIPR, Fluo-4 AM) of capsaicin-evoked response in cells expressing recombinant TRPV1
Type: cell-based
Conditions: 1321N1 human astrocytoma cells expressing hTRPV1; inhibition of 0.05 μM capsaicin-induced [Ca2+]i increase
Protocol: Dulbecco's modified Eagle medium (D-MEM) (with 4.5 mg/mL glucose) and fetal bovine serum were obtained from Hyclone Laboratories, Inc. (Logan, Utah). Dulbecco's phosphate-buffered saline (D-PBS) (with 1 mg/mL glucose and 3.6 mg/l Na pyruvate, without phenol red), L-glutamine, hygromycin B, and Lipofectamine® were obtained from Life Technologies (Grand Island, N.Y.). G418 sulfate was obtained from Calbiochem-Novabiochem Corp. (San Diego, Calif.). Capsaicin (8-methyl-N-vanillyl-6-nonenamide) was obtained from Sigma-Aldrich, Co. (St. Louis, Mo.). Fluo-4 AM (N-[4-[6-[(acetyloxy)methoxy]-2,7-difluoro-3-oxo-3H-xanthen-9-yl]-2-[2-[2-[bis[2-[(acetyloxy)methoxy]-2-oxyethyl]amino]-5-methylphenoxy]ethoxy]phenyl]-N-[2-[(acetyloxy)methoxy]-2-oxyethyl]-glycine, (acetyloxy)methyl ester) was purchased from Molecular Probes (Eugene, Oreg.).
The cDNAs for the human TRPV1 receptor were isolated by reverse transcriptase-polymerase chain reaction (RT-PCR) from human small intestine poly A+RNA supplied by Clontech (Palo Alto, Calif.) using primers designed surrounding the initiation and termination codons identical to the published sequences (Hayes et al. Pain 2000, 88, 205-215). The resulting cDNA PCR products were subcloned into pCIneo mammalian expression vector (Promega) and fully sequenced using fluorescent dye-terminator reagents (Prism, Perkin-Elmer Applied Biosystems Division) and a Perkin-Elmer Applied Biosystems Model 373 DNA sequencer or Model 310 genetic analyzer. Expression plasmids encoding the hTRPV1 cDNA were transfected individually into 1321N1 human astrocytoma cells using Lipofectamine®. Forty-eight hours after transfection, the neomycin-resistant cells were selected with growth medium containing 800 μg/mL Geneticin (Gibco BRL). Surviving individual colonies were isolated and screened for TRPV1 receptor activity. Cells expressing recombinant homomeric TRPV1 receptors were maintained at 37° C. in D-MEM containing 4 mM L-glutamine, 300 μg/mL G418 (Cal-biochem) and 10% fetal bovine serum under a humidified 5% CO2 atmosphere.
The functional activity of compounds at the TRPV1 receptor was determined with a Ca^2+ influx assay and measurement of intracellular Ca^2+ levels ([Ca^2+]i). All compounds were tested over an 11-point half-log concentration range. Compound solutions were prepared in D-PBS (4× final concentration), and diluted serially across 96-well v-bottom tissue culture plates using a Biomek 2000 robotic automation workstation (Beckman-Coulter, Inc., Fullerton, Calif.). A 0.2 μM solution of the TRPV1 agonist capsaicin was also prepared in D-PBS. The fluorescent Ca^2+ chelating dye Fluo-4 AM was used as an indicator of the relative levels of [Ca^2+]i in a 96-well format using a Fluorescence Imaging Plate Reader (FLIPR) (Molecular Devices, Sunnyvale, Calif.). Cells were grown to confluency in 96-well black-walled tissue culture plates. Then, prior to the assay, the cells were loaded with 100 μL per well of Fluo-4 AM (2 μM, in D-PBS) for 1-2 hours at 23° C. Washing of the cells was performed to remove extracellular Fluo-4 AM (2×1 mL D-PBS per well), and afterward, the cells were placed in the reading chamber of the FLIPR instrument. 50 μL of the compound solutions were added to the cells at the 10 second time mark of the experimental run. Then, after a 3-minute time delay, 50 μL of the capsaicin solution was added at the, 190 second time mark (0.05 μM final concentration)(final volume=200 μL) to challenge the TRPV1 receptor. Time length of the experimental run was 240 seconds. Fluorescence readings were made at 1 to 5 second intervals over the course of the experimental run. The peak increase in relative fluorescence units (minus baseline) was calculated from the 190 second time mark to the end of the experimental run, and expressed as a percentage of the 0.05 μM capsaicin (control) response. […]

T1 sequence (Q8NER1 whole entry): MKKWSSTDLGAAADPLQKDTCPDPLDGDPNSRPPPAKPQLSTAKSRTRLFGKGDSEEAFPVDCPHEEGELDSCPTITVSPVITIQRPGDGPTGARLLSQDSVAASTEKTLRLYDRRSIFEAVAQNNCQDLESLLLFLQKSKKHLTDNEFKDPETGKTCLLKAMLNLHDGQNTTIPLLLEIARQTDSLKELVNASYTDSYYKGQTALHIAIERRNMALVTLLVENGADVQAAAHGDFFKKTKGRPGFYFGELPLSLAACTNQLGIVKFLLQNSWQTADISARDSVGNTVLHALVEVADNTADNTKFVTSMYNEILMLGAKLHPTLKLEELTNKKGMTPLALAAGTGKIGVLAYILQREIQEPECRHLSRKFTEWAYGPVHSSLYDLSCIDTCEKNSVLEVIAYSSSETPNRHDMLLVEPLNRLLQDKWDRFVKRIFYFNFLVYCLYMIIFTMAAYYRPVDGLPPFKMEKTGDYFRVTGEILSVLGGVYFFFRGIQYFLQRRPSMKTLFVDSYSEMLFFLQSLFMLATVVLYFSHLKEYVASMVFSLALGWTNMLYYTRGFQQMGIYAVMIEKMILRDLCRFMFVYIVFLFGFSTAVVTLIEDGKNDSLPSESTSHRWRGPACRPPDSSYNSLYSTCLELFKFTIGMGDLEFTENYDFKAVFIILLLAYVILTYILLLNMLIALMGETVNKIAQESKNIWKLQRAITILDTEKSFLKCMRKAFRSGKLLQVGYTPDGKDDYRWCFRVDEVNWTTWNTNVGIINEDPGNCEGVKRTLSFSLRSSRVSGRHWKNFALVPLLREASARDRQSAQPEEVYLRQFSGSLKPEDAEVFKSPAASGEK

IC50 [nM] | SMILES
26 | C[C@@H]1CN(c2ncccc2C(F)(F)F)CC=C1C(=O)Nc1ccc(C(F)(F)F)cc1 [Example 4, (3S)-3-methyl-3′-(trifluoromethyl)-N-[4-(trifluoromethyl)phenyl]-3,6-dihydro-2H-1,2′-bipyridine-4-carboxamide]
13 | Cc1cccnc1N1CC=C(C(=O)Nc2ccc(C(C)(C)C#N)cc2)[C@H](C)C1 (single isomer, unassigned) [Example 17]
89 | C[C@@H]1CN(c2ncccc2C(F)(F)F)CC=C1C(=O)Nc1ccc(C(C)(C)C#N)cc1 (single isomer, unassigned) [Example 13]
380 | Cc1cccnc1N1CC=C(C(=O)Nc2ccc(C(F)(F)F)cc2)[C@@H](C)C1 (single isomer, unassigned) [Example 9]
480 | C[C@H]1CN(c2ncccc2C(F)(F)F)CC=C1C(=O)Nc1ccc(C(F)(F)F)cc1 (single isomer, unassigned) [Example 10]
63 | Cc1cccnc1N1CC=C(C(=O)Nc2ccc(C(F)(F)F)cc2)[C@H](C)C1 [Example 8, (3S)-3,3′-dimethyl-N-[4-(trifluoromethyl)phenyl]-3,6-dihydro-2H-1,2′-bipyridine-4-carboxamide]
1300 | Cc1cccnc1N1CC=C(C(=O)Nc2ccc(C(C)(C)C#N)cc2)[C@@H](C)C1 [Example 18, (3R)—N-(4-(2-cyanopropan-2-yl)phenyl)-3-methyl-1-(3-methylpyridin-2-yl)-1,2,3,6-tetrahydropyridine-4-carboxamide]
20 | C[C@@H]1CN(c2ncccc2Cl)CC=C1C(=O)Nc1ccc(C(F)(F)F)cc1 [Example 2, (3S)-3′-chloro-3-methyl-N-[4-(trifluoromethyl)phenyl]-3,6-dihydro-2H-1,2′-bipyridine-4-carboxamide]
710 | C[C@H]1CN(c2ncccc2C(F)(F)F)CC=C1C(=O)Nc1ccc(C(C)(C)C#N)cc1 (single isomer, unassigned) [Example 14]

Second part, the compound before the results:

SMILES | IC50 [nM]
Cc1cccnc1N1CC=C(C(=O)Nc2ccc(S(=O)(=O)C(F)(F)F)cc2)[C@H](C)C1 [Example 3, (3S)-3,3′-dimethyl-N-{4-[(trifluoromethyl)sulfonyl]phenyl}-3,6-dihydro-2H-1,2′-bipyridine-4-carboxamide] | 20
C[C@H]1CN(c2ncccc2C(F)(F)F)CC=C1C(=O)Nc1ccc(S(=O)(=O)C(F)(F)F)cc1 (single isomer, unassigned) [Example 12] | 640
C[C@H]1CN(c2ncccc2Cl)CC=C1C(=O)Nc1ccc(C(F)(F)F)cc1 [Example 7, (3R)-3′-chloro-3-methyl-N-[4-(trifluoromethyl)phenyl]-3,6-dihydro-2H-1,2′-bipyridine-4-carboxamide] | 84
C[C@@H]1CN(c2ncccc2Cl)CC=C1C(=O)Nc1ccc(S(=O)(=O)C(F)(F)F)cc1 [Example 1, (3S)-3′-chloro-3-methyl-N-{4-[(trifluoromethyl)sulfonyl]phenyl}-3,6-dihydro-2H-1,2′-bipyridine-4-carboxamide] | 28
C[C@@H]1CN(c2ncccc2C(F)(F)F)CC=C1C(=O)Nc1ccc(S(=O)(=O)C(F)(F)F)cc1 (single isomer, unassigned) [Example 11] | 40
Cc1cccnc1N1CC=C(C(=O)Nc2ccc(C(F)(F)F)nc2)[C@@H](C)C1 (single isomer, unassigned) [Example 20] | 3100
Cc1cccnc1N1CC=C(C(=O)Nc2ccc(S(=O)(=O)C(F)(F)F)cc2)[C@@H](C)C1 [Example 6, (3R)-3,3′-dimethyl-N-{4-[(trifluoromethyl)sulfonyl]phenyl}-3,6-dihydro-2H-1,2′-bipyridine-4-carboxamide] | 760
Cc1cccnc1N1CC=C(C(=O)Nc2ccc(C(C)(C)C)cc2)[C@@H](C)C1 (single isomer, unassigned) [Example 16] | 620
Cc1cccnc1N1CC=C(C(=O)Nc2ccc(C(C)(C)C)cc2)[C@H](C)C1 (single isomer, unassigned) [Example 15] | 15
Cc1cccnc1N1CC=C(C(=O)Nc2ccc(C(F)(F)F)nc2)[C@H](C)C1 (single isomer, unassigned) [Example 19] | 190
C[C@H]1CN(c2ncccc2Cl)CC=C1C(=O)Nc1ccc(S(=O)(=O)C(F)(F)F)cc1 [Example 5, (3R)-3′-chloro-3-methyl-N-{4-[(trifluoromethyl)sulfonyl]phenyl}-3,6-dihydro-2H-1,2′-bipyridine-4-carboxamide] | 230
